Measurements taken from ChEMBL document CHEMBL1131105, “Anthracene-9,10-diones as potential anticancer agents: bacterial mutation studies of amido-substituted derivatives reveal an unexpected lack of mutagenicity” (1998).

How the values were obtained:
Assay type in all cases: functional, Salmonella enterica subsp. enterica serovar Typhimurium
Salmonella typhimurium [1] = assay: Bacterial mutagenicity was measured against Salmonella Typhimurium TA1538 at dose range of 0-200 ug/plate
Salmonella typhimurium [2] = assay: Bacterial mutagenicity was measured against Salmonella Typhimurium TA98 at dose range of 0-20 ug/plate
Salmonella typhimurium [3] = assay: Bacterial mutagenicity was measured against Salmonella Typhimurium TA97a at dose range of 0-400 ug/plate
Salmonella typhimurium [4] = assay: Bacterial mutagenicity was measured against Salmonella Typhimurium TA98 at dose range of 0-10 ug/plate
Salmonella typhimurium [5] = assay: Bacterial mutagenicity was measured against Salmonella Typhimurium TA1538 at dose range of 0-5 ug/plate

Compound `C(=N\NC1=NCCN1)/c1c2ccccc2c(/C=N/NC2=NCCN2)c2ccccc12` [BISANTRENE] has a Slope (Salmonella typhimurium [1]) of 0.2 mutants ug-1, a Slope (Salmonella typhimurium [2]) of 0.33 mutants ug-1 and a Slope (Salmonella typhimurium [3]) of 1.83 mutants ug-1.

`O=C1c2c(O)ccc(O)c2C(=O)c2c(NCCNCCO)ccc(NCCNCCO)c21` [MITOXANTRONE] showed a Slope (Salmonella typhimurium [4]) of 3.04 mutants ug-1, a Slope (Salmonella typhimurium [5]) of 3.52 mutants ug-1 and a Slope (Salmonella typhimurium [3]) of 0.01 mutants ug-1.
